According to ChEMBL document CHEMBL1201862, “PubChem BioAssay data set” (2004):
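Tested at 5 concentrations; 48 h exposure; 96-well plates; endpoints linearly interpolated, else capped at highest concentration. GI50: concentration for 50% inhibition of growth.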 Activity calls are given as the source filed them. No stated cut-off is given here; in the data, active = GI50 up to about 1.1 µM and inactive = higher.

Tests used:
Test in all cases: inhibition of tumour cell growth, NCI panel, 48 h
KM-20L2 = system: KM-20L2
DMS-114 = system: DMS-114
HOP-18 = system: HOP-18
LXFL 529 = system: LXFL 529
DMS-273 = system: DMS-273
DLD-1 = system: DLD-1
SNB-78 = system: SNB-78
M19-MEL = system: M19-MEL
RXF 631 = system: RXF 631

Measured: GI50

CCC(C)C(=O)O[C@H]1C(=O)O[C@@H]2C[C@H]3C(C)=CC(=O)[C@@H](O)[C@]3(C)[C@H]3[C@@H](O)[C@H](O)[C@@]4(C)OC[C@]32[C@@H]14 (some centres undefined)
active: KM-20L2 0.0468 µM | DMS-114 0.0152 µM | HOP-18 0.158 µM | LXFL 529 0.0103 µM | DMS-273 0.019 µM | DLD-1 0.0293 µM | SNB-78 0.0323 µM | M19-MEL 0.0269 µM

Cc1nc2ccccc2c(=O)n1NC(=S)Nc1ccccc1
inactive: DMS-114 71.1 µM | HOP-18 > 100 µM | LXFL 529 > 100 µM | DMS-273 > 100 µM | DLD-1 > 100 µM | M19-MEL > 100 µM

N#CC(C(=O)/C(=N/N)C(C#N)c1ccc(Cl)cc1)c1ccc(Cl)cc1 (centres undefined)
inactive: KM-20L2 > 100 µM | DMS-114 > 100 µM | HOP-18 > 100 µM | LXFL 529 > 100 µM | DLD-1 > 100 µM | SNB-78 > 100 µM | RXF 631 > 100 µM | M19-MEL > 100 µM

CCc1cc(CCC(=O)Nc2ccccc2[N+](=O)[O-])nc(S)n1
inactive: KM-20L2 > 100 µM | DMS-114 > 100 µM | HOP-18 > 100 µM | LXFL 529 > 100 µM | DLD-1 > 100 µM | SNB-78 > 100 µM | RXF 631 > 100 µM | M19-MEL > 100 µM

Clc1ccccc1C1SCc2nc3ccccc3n21 (centres undefined)
inactive: LXFL 529 26.4 µM | DLD-1 33.2 µM | SNB-78 17.1 µM | M19-MEL 33 µM
active: HOP-18 < 0.01 µM

C=C(COC(C)=O)CC(/C=C(\C)CCC=C(C)C)OC(C)=O (centres undefined)
inactive: KM-20L2 > 100 µM | DMS-114 > 100 µM | LXFL 529 > 100 µM | DMS-273 > 100 µM | DLD-1 > 100 µM | SNB-78 > 100 µM | M19-MEL > 100 µM

CC(C)=CC(=O)C1c2cccc(O)c2C(=O)c2c(O)cc(C)cc21 (centres undefined)
inactive: KM-20L2 4.86 µM | DMS-114 1.79 µM | HOP-18 2.15 µM | LXFL 529 2.04 µM | DMS-273 3.48 µM | DLD-1 2.87 µM | SNB-78 2.86 µM | M19-MEL 1.81 µM

CCOC(=N)CC(=O)c1ccccc1
inactive: KM-20L2 > 100 µM | DMS-114 > 100 µM | HOP-18 > 100 µM | LXFL 529 > 100 µM | DMS-273 > 100 µM | DLD-1 > 100 µM | SNB-78 > 100 µM | M19-MEL > 100 µM

COC1OC(COCc2ccc(Cl)cc2)C(OCc2ccc(Cl)cc2)C1O (centres undefined)
inactive: KM-20L2 17.3 µM | DMS-114 13.7 µM | HOP-18 12.8 µM | LXFL 529 18.4 µM | DMS-273 17.3 µM | DLD-1 16.2 µM | RXF 631 16.2 µM | M19-MEL 19.2 µM

CCCCCCC(C)OC(=O)/C=C(\CC(=O)OC(C)CCCCCC)C(=O)OC(C)CCCCCC (centres undefined)
inactive: KM-20L2 > 100 µM | DMS-114 > 100 µM | LXFL 529 > 100 µM | DMS-273 > 100 µM | DLD-1 > 100 µM | SNB-78 > 100 µM | M19-MEL > 100 µM

O=C(CCn1[nH]c(=O)c(Cl)c(Cl)c1=O)NO
inactive: KM-20L2 > 100 µM | DMS-114 > 100 µM | HOP-18 > 100 µM | LXFL 529 > 100 µM | DMS-273 > 100 µM | DLD-1 > 100 µM | M19-MEL > 100 µM

C=C(CS(=O)(=O)c1ccccc1)[P+](c1ccccc1)(c1ccccc1)c1ccccc1
inactive: KM-20L2 17.5 µM | DMS-114 21.6 µM | DMS-273 16.4 µM | DLD-1 21.4 µM | SNB-78 38 µM | M19-MEL 17.3 µM

COc1cc([C@@H]2c3cc4c(cc3[C@@H](NC(=O)c3ccc(N)cc3)C3COC(=O)[C@@H]32)OCO4)cc(OC)c1O (some centres undefined)
active: DMS-273 0.37 µM
inactive: KM-20L2 1.73 µM | DMS-114 2 µM | HOP-18 > 100 µM | LXFL 529 13.9 µM | DLD-1 3.47 µM | M19-MEL 12.5 µM

COC12OCCN(CCO)C1=CC(=O)C1(C)N=NC(C)C12 (centres undefined)
inactive: DMS-114 > 100 µM | HOP-18 > 100 µM | LXFL 529 > 100 µM | DMS-273 > 100 µM | DLD-1 > 100 µM | SNB-78 > 100 µM | RXF 631 > 100 µM | M19-MEL > 100 µM

COc1ccc2nc(NC(=O)C(=O)CC(=O)c3ccc(Cl)cc3)sc2c1
inactive: KM-20L2 71.3 µM | DMS-114 > 100 µM | HOP-18 78.2 µM | LXFL 529 > 100 µM | DMS-273 > 100 µM | DLD-1 > 100 µM | SNB-78 > 100 µM | M19-MEL > 100 µM

CSCC1CC(c2ccc(Cl)cc2)=NO1 (centres undefined)
inactive: KM-20L2 > 100 µM | DMS-114 > 100 µM | HOP-18 > 100 µM | LXFL 529 > 100 µM | DMS-273 > 100 µM | DLD-1 > 100 µM | SNB-78 > 100 µM | RXF 631 > 100 µM | M19-MEL > 100 µM

OC/C=C(\I)CCCOCOCc1ccccc1
inactive: KM-20L2 29.5 µM | DMS-114 22.8 µM | LXFL 529 48.9 µM | DMS-273 21.8 µM | DLD-1 > 100 µM | SNB-78 25.6 µM | M19-MEL 32.1 µM

CCCCCCCCCCCCC(Br)C(=O)NCC(N)=O (centres undefined)
inactive: KM-20L2 20.4 µM | DMS-114 3.61 µM | HOP-18 14.3 µM | LXFL 529 9.91 µM | DMS-273 11.7 µM | DLD-1 12.9 µM | SNB-78 12.4 µM | RXF 631 3.63 µM | M19-MEL 15 µM

O=C(CC(=O)C(F)(F)F)c1csc2ccccc12
inactive: KM-20L2 39.3 µM | DMS-114 31 µM | LXFL 529 21.7 µM | DMS-273 25 µM | SNB-78 37.4 µM | M19-MEL 32.8 µM

O=c1oc2c3ccc4ccccc4c3n(CCN3CCOCC3)c2c2ccccc12
inactive: KM-20L2 > 100 µM | DMS-114 > 100 µM | HOP-18 > 100 µM | LXFL 529 > 100 µM | DLD-1 > 100 µM | M19-MEL 3.76 µM

COc1ccc(NC(=O)c2cc(OC)cc(OC)c2)cc1
inactive: KM-20L2 4.81 µM | DMS-114 7.29 µM | HOP-18 > 46.7 µM | LXFL 529 40.5 µM | DMS-273 9.02 µM | DLD-1 17.1 µM | SNB-78 26 µM

Cc1cc(C(=C2C=CC(=N)C=C2)c2ccc(N)cc2)ccc1N [FUCHSIN, BASIC]
inactive: KM-20L2 3.77 µM | DMS-114 1.31 µM | DLD-1 3.45 µM | SNB-78 2.76 µM | M19-MEL 4.21 µM
active: LXFL 529 1.03 µM
